For 9 compounds, IC50 results are on record in publication PMC10810011 (Expert opinion on drug delivery, 2023).

pIC50: −log10 of the molar value. Where a name gives a salt, the structure may show the parent alone.

One series deals with T1, Muscarinic M2 (Homo sapiens, UniProt P08172).
T1 sequence (P08172 1-466): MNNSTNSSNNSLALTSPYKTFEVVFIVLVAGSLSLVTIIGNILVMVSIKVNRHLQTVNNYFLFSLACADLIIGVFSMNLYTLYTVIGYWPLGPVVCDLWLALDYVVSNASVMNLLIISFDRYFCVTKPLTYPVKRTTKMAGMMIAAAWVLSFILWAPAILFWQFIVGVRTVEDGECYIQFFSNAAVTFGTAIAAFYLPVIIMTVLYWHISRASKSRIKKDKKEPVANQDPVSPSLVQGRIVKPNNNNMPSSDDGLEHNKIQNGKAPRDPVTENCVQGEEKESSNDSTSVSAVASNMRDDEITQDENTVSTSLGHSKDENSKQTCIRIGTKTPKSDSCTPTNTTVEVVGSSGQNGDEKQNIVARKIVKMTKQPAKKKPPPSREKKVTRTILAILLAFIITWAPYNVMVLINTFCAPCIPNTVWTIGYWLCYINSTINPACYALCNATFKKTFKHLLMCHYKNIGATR
Briefly: InVEST radioligand filter binding, Muscarinic M2. As to conditions: read-out: IC50 (M) of reference compound, tested in parallel.

In a further series the target is T2, AHR-activation (Homo sapiens, UniProt P35869).
T2 sequence (P35869 11-848): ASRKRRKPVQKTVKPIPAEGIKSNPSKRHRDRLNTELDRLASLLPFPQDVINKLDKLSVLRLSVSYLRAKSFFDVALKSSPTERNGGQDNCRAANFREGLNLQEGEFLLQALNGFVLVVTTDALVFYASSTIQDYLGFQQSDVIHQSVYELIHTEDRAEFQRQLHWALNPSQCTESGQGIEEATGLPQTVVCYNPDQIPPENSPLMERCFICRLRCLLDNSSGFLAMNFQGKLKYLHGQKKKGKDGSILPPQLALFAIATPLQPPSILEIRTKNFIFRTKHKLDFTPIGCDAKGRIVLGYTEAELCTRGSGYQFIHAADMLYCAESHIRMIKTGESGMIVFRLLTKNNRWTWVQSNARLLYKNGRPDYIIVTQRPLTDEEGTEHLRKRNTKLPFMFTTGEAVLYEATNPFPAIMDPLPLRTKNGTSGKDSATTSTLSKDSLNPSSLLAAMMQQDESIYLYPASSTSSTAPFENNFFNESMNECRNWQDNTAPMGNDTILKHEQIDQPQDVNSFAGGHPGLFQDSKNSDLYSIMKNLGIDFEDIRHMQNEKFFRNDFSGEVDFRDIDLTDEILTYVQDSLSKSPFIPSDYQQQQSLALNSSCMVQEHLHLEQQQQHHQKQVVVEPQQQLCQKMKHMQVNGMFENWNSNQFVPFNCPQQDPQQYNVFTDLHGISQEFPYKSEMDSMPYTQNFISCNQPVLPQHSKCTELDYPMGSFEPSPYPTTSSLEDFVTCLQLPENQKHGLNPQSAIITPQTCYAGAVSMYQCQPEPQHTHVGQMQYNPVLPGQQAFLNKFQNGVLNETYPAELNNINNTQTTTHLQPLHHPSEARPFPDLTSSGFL

Another series deals with 5-HT1B (Homo sapiens, UniProt P28222). Put plainly: InVEST radioligand filter binding, 5-HT1B.
Sequence of 5-HT1B (P28222 whole entry): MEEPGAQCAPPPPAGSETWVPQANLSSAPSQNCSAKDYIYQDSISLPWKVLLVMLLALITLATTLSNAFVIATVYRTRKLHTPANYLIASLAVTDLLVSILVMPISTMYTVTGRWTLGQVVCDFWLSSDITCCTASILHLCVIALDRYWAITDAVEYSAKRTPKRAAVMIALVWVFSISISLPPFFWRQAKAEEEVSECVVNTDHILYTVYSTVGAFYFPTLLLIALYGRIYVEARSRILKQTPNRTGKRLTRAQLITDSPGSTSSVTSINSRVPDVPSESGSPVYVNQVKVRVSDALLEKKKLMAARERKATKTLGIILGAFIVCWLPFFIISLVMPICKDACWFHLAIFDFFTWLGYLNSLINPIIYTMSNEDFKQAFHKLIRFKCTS
For a further series, the target named is T3, 5-HT3 (Homo sapiens, UniProt P46098).
T3 sequence (P46098 24-478): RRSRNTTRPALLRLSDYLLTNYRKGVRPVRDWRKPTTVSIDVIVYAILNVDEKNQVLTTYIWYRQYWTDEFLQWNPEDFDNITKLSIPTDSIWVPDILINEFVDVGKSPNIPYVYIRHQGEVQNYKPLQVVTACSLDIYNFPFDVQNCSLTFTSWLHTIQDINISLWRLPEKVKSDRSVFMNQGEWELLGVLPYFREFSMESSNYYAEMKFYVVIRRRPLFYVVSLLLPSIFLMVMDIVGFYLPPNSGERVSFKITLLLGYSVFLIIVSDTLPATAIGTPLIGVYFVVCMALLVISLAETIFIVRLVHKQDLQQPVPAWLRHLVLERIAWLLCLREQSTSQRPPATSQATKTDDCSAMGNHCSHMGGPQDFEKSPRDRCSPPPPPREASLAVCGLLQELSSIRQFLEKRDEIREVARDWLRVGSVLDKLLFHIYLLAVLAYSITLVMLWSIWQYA
Briefly: InVEST radioligand filter binding, ion channel 5-HT3. Conditions: read-out: IC50 (M) of reference compound, tested in parallel.

The target in another series is PDE3A (Homo sapiens, UniProt Q14432). Briefly: InVEST enzymatic activity, PDE3A. Format: biochemical. Conditions: read-out: IC50 (M) of reference compound, tested in parallel.
Sequence of PDE3A (Q14432 whole entry): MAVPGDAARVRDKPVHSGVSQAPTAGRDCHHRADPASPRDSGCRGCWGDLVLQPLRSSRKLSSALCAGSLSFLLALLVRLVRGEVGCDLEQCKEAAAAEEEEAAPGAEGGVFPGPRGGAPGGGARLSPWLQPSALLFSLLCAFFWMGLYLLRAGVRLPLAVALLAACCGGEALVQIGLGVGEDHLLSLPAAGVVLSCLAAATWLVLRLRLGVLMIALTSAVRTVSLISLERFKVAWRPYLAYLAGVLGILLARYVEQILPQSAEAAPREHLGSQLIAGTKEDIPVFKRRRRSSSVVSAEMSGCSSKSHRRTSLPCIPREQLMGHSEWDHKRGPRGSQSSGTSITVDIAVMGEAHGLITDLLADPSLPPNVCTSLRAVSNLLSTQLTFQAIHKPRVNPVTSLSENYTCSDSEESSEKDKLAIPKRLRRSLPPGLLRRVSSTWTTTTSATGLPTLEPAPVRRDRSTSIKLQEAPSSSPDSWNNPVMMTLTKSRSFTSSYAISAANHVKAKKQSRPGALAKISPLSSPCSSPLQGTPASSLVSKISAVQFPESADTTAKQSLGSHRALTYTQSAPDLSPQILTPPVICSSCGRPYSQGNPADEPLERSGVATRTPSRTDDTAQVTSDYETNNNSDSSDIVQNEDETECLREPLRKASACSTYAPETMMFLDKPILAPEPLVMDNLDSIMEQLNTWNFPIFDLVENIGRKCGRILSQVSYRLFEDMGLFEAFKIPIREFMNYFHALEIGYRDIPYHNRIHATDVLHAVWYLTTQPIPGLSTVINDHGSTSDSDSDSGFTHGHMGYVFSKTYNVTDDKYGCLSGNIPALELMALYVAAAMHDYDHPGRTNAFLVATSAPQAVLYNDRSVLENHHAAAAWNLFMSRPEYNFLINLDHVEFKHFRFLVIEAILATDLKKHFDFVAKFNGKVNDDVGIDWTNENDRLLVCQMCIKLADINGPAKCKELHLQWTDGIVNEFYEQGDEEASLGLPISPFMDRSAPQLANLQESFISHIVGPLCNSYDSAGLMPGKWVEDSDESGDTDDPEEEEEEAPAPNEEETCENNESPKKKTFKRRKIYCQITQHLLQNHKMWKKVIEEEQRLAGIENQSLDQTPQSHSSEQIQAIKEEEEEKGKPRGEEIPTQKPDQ
Another series deals with PDE4A (Homo sapiens, UniProt P27815). Put plainly: InVEST enzymatic activity, PDE4A. Format: biochemical. Conditions: read-out: IC50 (M) of reference compound, tested in parallel.
Sequence of PDE4A (P27815 whole entry): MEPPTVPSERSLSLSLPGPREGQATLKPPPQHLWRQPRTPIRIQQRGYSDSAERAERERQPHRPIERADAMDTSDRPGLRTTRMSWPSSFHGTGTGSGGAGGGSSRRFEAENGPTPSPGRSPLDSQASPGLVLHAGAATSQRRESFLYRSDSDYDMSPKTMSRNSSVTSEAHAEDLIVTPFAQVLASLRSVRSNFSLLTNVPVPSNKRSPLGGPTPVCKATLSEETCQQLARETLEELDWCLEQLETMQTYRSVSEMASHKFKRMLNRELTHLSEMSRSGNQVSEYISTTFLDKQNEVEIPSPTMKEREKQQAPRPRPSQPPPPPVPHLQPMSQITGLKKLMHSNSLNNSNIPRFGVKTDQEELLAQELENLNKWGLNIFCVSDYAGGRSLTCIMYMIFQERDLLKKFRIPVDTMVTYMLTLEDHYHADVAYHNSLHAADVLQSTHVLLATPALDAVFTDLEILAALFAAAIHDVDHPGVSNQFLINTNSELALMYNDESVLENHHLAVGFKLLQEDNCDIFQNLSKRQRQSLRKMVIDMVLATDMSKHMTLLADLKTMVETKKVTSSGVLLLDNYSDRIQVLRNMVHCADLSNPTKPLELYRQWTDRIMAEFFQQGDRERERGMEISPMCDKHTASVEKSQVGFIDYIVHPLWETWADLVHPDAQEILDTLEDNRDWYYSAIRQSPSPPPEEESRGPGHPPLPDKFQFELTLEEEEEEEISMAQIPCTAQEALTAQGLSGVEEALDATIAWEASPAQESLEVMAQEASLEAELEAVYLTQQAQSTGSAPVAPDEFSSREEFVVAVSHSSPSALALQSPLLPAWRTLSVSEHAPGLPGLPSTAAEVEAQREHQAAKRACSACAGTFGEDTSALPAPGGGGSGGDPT
The target of a further series is T4, alpha2A adrenergic (Homo sapiens, UniProt P08913).
T4 sequence (P08913 1-465): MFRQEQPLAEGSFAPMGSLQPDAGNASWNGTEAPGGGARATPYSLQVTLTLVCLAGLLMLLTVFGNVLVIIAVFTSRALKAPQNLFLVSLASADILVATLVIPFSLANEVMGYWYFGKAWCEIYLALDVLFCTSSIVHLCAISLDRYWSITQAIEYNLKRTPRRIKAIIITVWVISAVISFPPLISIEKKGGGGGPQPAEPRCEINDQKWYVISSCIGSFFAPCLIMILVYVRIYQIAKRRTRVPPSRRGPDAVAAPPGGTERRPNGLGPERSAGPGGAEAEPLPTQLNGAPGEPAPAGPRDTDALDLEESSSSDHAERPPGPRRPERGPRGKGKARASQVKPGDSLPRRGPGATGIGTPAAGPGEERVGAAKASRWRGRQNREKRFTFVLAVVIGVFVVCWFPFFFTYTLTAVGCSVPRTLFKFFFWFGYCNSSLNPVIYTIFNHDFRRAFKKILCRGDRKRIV
Put plainly: InVEST radioligand filter binding, alpha2A adrenergic. As to conditions: read-out: IC50 (M) of reference compound, tested in parallel.

In another series the target is Thrombin alpha (Homo sapiens, UniProt P00734). Briefly: InVEST enzymatic activity, Thrombin alpha. The class given is biochemical. Conditions: read-out: IC50 (M) of reference compound, tested in parallel.
A further series addresses T5, CCK (Homo sapiens, UniProt P32238).
T5 sequence (P32238 1-428): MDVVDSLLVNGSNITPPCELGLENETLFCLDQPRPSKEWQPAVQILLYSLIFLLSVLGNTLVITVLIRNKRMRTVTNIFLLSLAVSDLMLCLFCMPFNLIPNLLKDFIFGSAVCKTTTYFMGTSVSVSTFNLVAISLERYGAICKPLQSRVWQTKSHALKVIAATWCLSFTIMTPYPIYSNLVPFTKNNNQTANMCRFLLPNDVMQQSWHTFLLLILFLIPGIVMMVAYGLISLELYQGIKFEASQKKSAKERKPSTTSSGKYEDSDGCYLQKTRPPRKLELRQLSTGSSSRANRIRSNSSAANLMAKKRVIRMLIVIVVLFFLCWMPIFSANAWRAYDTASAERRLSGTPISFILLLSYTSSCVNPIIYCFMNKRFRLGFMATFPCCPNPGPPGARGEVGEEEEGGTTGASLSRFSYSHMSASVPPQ
Briefly: InVEST radioligand filter binding, CCK.

A further series addresses T6, AHR-inhibition (Homo sapiens, UniProt P35869).
T6 sequence (P35869 11-848): T2 sequence (P35869 11-848)
Briefly: InVEST fluorescence polarization binding/cell-based activity, AHR-inhibition. As to conditions: read-out: IC50 (M) of reference compound, + 10 nM FICZ, tested in parallel.

Take `CCCN(CCC)CC1CCCCN1CCNC(=O)N1c2ccccc2C(=O)Nc2cccnc21` (stereo not shown) [AF-DX 384, reference compound]: the IC50 on Muscarinic M2 amounted to 1.79e-08 M.

Regarding `O=Cc1c2[nH]c3ccccc3c2cc2[nH]c3ccccc3c12` [FICZ], the pIC50 at AHR-activation was 7.98.

In turn, `COc1ccc(NC(=O)c2ccc(-c3ccncc3)c(C)c2)cc1N1CCN(C)CC1` [GR125743, reference compound] showed a pIC50 on 5-HT1B of 8.31.

Turning to `Cc1[nH]cnc1CCC(=O)c1cn(C)c2ccccc12` [GR 65630, reference compound], the IC50 on 5-HT3 came out at 1.09e-09 M.

Consider `CC(C)Cn1c(=O)n(C)c(=O)c2[nH]cnc21` [IBMX, reference compound], for which the IC50 came to 2.21e-05 M at PDE3A and 3e-05 M on PDE4A.

With `COC1(C2=NCCN2)COc2ccccc2O1` (stereo not shown) [RX 821002, reference compound], the IC50 at alpha2A adrenergic was 1.15e-08 M.

With `CCOC(=O)c1ccc(OC(=O)CCCCCN=C(N)N)cc1` [gabexate mesylate, reference compound], the half-inhibitory concentration (IC50) at Thrombin alpha is 2.26e-06 M.

For the compound `CCCCCN(CCCCC)C(=O)C(CCC(=O)O)NC(=O)c1ccc(Cl)c(Cl)c1` (stereo not shown) [lorglumide, reference compound], the pIC50 on CCK was 8.42.

With GNF-351 [reference compound], the IC50 on AHR-inhibition was found to be 2.9e-07 M.

As usually defined, the IC50 is the concentration needed to halve the response being measured. Usually pIC50 stands for −log10 of the IC50, conventionally taken in molar units. Lower therefore signals a large IC50.
